SMILES strings stand for the structures. Where two headings read alike, the source gives them in different places.

For one experiment, the target named is Galectin-3 (Homo sapiens, UniProt P17931). The experiment in a line: fluorescence anisotropy assay, compound as inhibitor of galectin / fluorescein tagged saccharide probe interaction. Format: binding. An excerpt:
(§1) Anal. Biochem. 334: 36-47, (Sörme et al., 2004) and Monovalent interactions of Galectin-1 By Salomonsson, Emma; Larumbe, Amaia; Tejler, Johan; Tullberg, Erik; Rydberg, Hanna; Sundin, Anders; Khabut, Areej; Frejd, Torbjorn; Lobsanov, Yuri D.; Rini, James M.; et al, From Biochemistry (2010), 49(44), 9518-9532, (Salomonsson et al., 2010).
In general terms: Polarisation of emitted light reports the rotation of a fluorescent probe.

A further experiment has as its target Galectin-1 (Homo sapiens, UniProt P09382). The experiment is described as above. Format: binding.
Description: as §1

Galectin-3, sequence (P17931 whole entry): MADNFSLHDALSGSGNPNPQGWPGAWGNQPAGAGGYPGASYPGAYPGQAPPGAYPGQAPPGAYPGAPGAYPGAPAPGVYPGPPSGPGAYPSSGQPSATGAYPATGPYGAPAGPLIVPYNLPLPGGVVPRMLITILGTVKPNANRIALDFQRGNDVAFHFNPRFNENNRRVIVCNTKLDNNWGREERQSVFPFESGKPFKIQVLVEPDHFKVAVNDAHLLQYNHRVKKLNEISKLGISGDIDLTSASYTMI
Galectin-1, sequence (P09382 whole entry): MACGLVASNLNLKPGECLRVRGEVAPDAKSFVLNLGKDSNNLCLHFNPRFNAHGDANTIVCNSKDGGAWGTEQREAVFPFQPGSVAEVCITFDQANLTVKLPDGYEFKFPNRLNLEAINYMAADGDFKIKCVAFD

The Kd is the constant that tells how readily two partners part at equilibrium. `C#Cc1cnc(C#N)c(S[C@H]2O[C@H](CO)[C@H](O)[C@H](n3cc(-c4csc(N)n4)nn3)[C@H]2O)c1` [Example 84, 2-Cyano-5-ethynylpyridin-3-yl 3-[4-(2-aminothiazol-4-yl)-1H-1,2,3-triazol-1-yl]-3-deoxy-1-thio-α-D-galactopyranoside]: the values for the dissociation constant (Kd) on Galectin-3 and on Galectin-1 were 4100 nM and 540 nM, respectively.

Regarding `CCNC(=O)c1ncc(Cl)cc1S[C@H]1O[C@H](CO)[C@H](O)[C@H](n2cc(-c3nc(Cl)cs3)nn2)[C@H]1OC` [Example 94, 5-Chloro-2-(N-ethylcarbamoyl)pyridin-3-yl 3-[4-(4-chlorothiazol-2-yl)-1H-1,2,3-triazol-1-yl]-3-deoxy-2-O-methyl-1-thio-α-D-galactopyranoside], the Kd at Galectin-3 is 74 nM; on Galectin-1, 12 nM.

As for `CO[C@@H]1[C@@H](n2cc(-c3nc(Cl)cs3)nn2)[C@@H](O)[C@@H](CO)O[C@@H]1Sc1cncc(Br)c1` [Example 54, 5-Bromopyridin-3-yl 3-[4-(4-chlorothiazol-2-yl)-1H-1,2,3-triazol-1-yl]-3-deoxy-2-O-methyl-1-thio-α-D-galactopyranoside], the Kd was 190 nM on Galectin-3 and 90 nM on Galectin-1.

`CO[C@@H]1[C@@H](n2cc(-c3nc(C)c(Cl)s3)nn2)[C@@H](O)[C@@H](CO)O[C@@H]1Sc1cc(Br)cnc1C#N` [Example 64, 5-Bromo-2-cyanopyridin-3-yl 3-[4-(5-chloro-4-methylthiazol-2-yl)-1H-1,2,3-triazol-1-yl]-3-deoxy-2-O-methyl-1-thio-α-D-galactopyranoside]: the dissociation constant Kd came out at 220 nM at Galectin-3 and 280 nM on Galectin-1.

Take `N#Cc1ncc(Cl)cc1S[C@H]1O[C@H](CO)[C@H](O)[C@H](n2cc(-c3csc(N)n3)nn2)[C@H]1OCc1ccccc1` [Example 19, 5-Chloro-2-cyanopyridin-3-yl 3-[4-(2-aminothiazol-4-yl)-1H-1,2,3-triazol-1-yl]-2-O-benzyl-3-deoxy-1-thio-α-D-galactopyranoside]: the dissociation constant Kd came out at 1800 nM on Galectin-3 and 79 nM on Galectin-1.

Consider `CO[C@@H]1[C@@H](n2cc(-c3csc(N)n3)nn2)[C@@H](O)[C@@H](CO)O[C@@H]1Sc1ccc(C#N)c(Cl)c1` [Example 39, 3-Chloro-4-cyanophenyl 3-[4-(2-aminothiazol-4-yl)-1H-1,2,3-triazol-1-yl]-3-deoxy-2-O-methyl-1-thio-α-D-galactopyranoside], for which the Kd at Galectin-3 came to 3600 nM; at Galectin-1, 71 nM.

On to `CO[C@@H]1[C@@H](n2cc(-c3csc(N)n3)nn2)[C@@H](O)[C@@H](CO)O[C@@H]1Sc1cc(Cl)cnc1-c1ncco1` [Example 27, 5-Chloro-2-(oxazol-2-yl)pyridin-3-yl 3-[4-(2-aminothiazol-4-yl)-1H-1,2,3-triazol-1-yl]-3-deoxy-2-O-methyl-1-thio-α-D-galactopyranoside], for which the results for the dissociation constant (Kd) on Galectin-3 and at Galectin-1 were 3200 nM and 28 nM, respectively.

With `OC[C@H]1O[C@H](Sc2cncc(Br)c2)[C@H](O)[C@@H](n2cc(-c3nc(Cl)cs3)nn2)[C@H]1O` [Example 49, 5-Bromopyridin-3-yl 3-[4-(4-chlorothiazol-2-yl)-1H-1,2,3-triazol-1-yl]-3-deoxy-1-thio-α-D-galactopyranoside], the Kd was 190 nM on Galectin-3 and 150 nM at Galectin-1.

As for `C#Cc1cnc(C(=O)N2CCC2)c(S[C@H]2OC(CO)[C@H](O)C(n3cc(-c4nc(Cl)cs4)nn3)C2OC)c1` (stereo partly drawn) [Example 92, 2-(N-Azetidinylcarbamoyl)-5-ethynylpyridin-3-yl 3-[4-(4-chlorothiazol-2-yl)-1H-1,2,3-triazol-1-yl]-3-deoxy-2-O-methyl-1-thio-α-D-galactopyranoside], the equilibrium dissociation constant (Kd) was 99 nM on Galectin-3 and 32 nM on Galectin-1.

In the case of `CO[C@@H]1[C@@H](n2cc(-c3nc(C)cs3)nn2)[C@@H](O)[C@@H](CO)O[C@@H]1Sc1cc(Br)cnc1C#N` [Example 34, 5-Bromo-2-cyanopyridin-3-yl 3-deoxy-3-[4-(4-methylthiazol-2-yl)-1H-1,2,3-triazol-1-yl]-2-O-methyl-1-thio-α-D-galactopyranoside], the Kd at Galectin-3 is 1400 nM; at Galectin-1, 53 nM.

Consider `CO[C@@H]1[C@@H](n2cc(-c3nc(C)cs3)nn2)[C@@H](O)[C@@H](CO)O[C@@H]1Sc1cc(Br)ccc1F` [Example 69, 5-Bromo-2-fluorophenyl 3-deoxy-3-[4-(4-methylthiazol-2-yl)-1H-1,2,3-triazol-1-yl]-2-O-methyl-1-thio-α-D-galactopyranoside], for which the dissociation constant Kd was 12000 nM at Galectin-3 and 650 nM at Galectin-1.

With `C#Cc1cncc(S[C@H]2O[C@H](CO)[C@H](O)[C@H](n3cc(-c4csc(N)n4)nn3)[C@H]2OC)c1` [Example 81, 5-Ethynylpyridin-3-yl 3-[4-(2-aminothiazol-4-yl)-1H-1,2,3-triazol-1-yl]-3-deoxy-2-O-methyl-1-thio-α-D-galactopyranoside], the results for the Kd on Galectin-3 and at Galectin-1 were 6600 nM and 190 nM, respectively.

On to `C#Cc1cncc(S[C@H]2O[C@H](CO)[C@H](O)[C@H](n3cc(-c4nc(Cl)cs4)nn3)[C@H]2O)c1` [Example 80, 5-Ethynylpyridin-3-yl 3-[4-(4-chlorothiazol-2-yl)-1H-1,2,3-triazol-1-yl]-3-deoxy-1-thio-α-D-galactopyranoside], for which the values for the dissociation constant Kd at Galectin-3 and on Galectin-1 were 360 nM and 310 nM, respectively.

Consider `CCO[C@@H]1[C@@H](n2cc(-c3nc(Cl)cs3)nn2)[C@@H](O)[C@@H](CO)O[C@@H]1Sc1cc(Br)cnc1C#N` [Example 86, 5-Bromo-2-cyanopyridin-3-yl 3-[4-(4-chlorothiazol-2-yl)-1H-1,2,3-triazol-1-yl]-3-deoxy-2-O-ethyl-1-thio-α-D-galactopyranoside], for which the Kd turned out to be 170 nM on Galectin-3 and 22 nM on Galectin-1.

Turning to `CO[C@@H]1[C@@H](n2cc(-c3nc(Cl)cs3)nn2)[C@@H](O)[C@@H](CO)O[C@@H]1Sc1cc(C)cnc1C#N` [Example 36, 2-Cyano-5-methylpyridin-3-yl 3-[4-(4-chlorothiazol-2-yl)-1H-1,2,3-triazol-1-yl]-3-deoxy-2-O-methyl-1-thio-α-D-galactopyranoside], the Kd came to 700 nM at Galectin-3 and 190 nM on Galectin-1.

Consider `CCO[C@@H]1[C@@H](n2cc(-c3nc(Cl)cs3)nn2)[C@@H](O)[C@@H](CO)O[C@@H]1Sc1cc(Br)cnc1C(=O)N(C)C` [Example 90, 5-Bromo-2-(N,N-dimethylcarbamoyl)pyridin-3-yl 3-[4-(4-chlorothiazol-2-yl)-1H-1,2,3-triazol-1-yl]-3-deoxy-2-O-ethyl-1-thio-α-D-galactopyranoside], for which the equilibrium dissociation constant (Kd) at Galectin-3 came out at 44 nM; on Galectin-1, 8.5 nM.

Take `CO[C@@H]1[C@@H](n2cc(-c3csc(O)n3)nn2)[C@@H](O)[C@@H](CO)O[C@@H]1Sc1cc(Cl)c(F)c(Cl)c1` [Example 7, 3,5-Dichloro-4-fluorophenyl 3-deoxy-3-[4-(2-hydroxythiazol-4-yl)-1H-1,2,3-triazol-1-yl]-2-O-methyl-1-thio-α-D-galactopyranoside]: the Kd at Galectin-3 worked out at 2600 nM; at Galectin-1 (read-out: Galectin-1 Kd), 29 nM.

For `CNC(=O)c1ccc(Br)cc1S[C@H]1OC(CO)[C@H](O)C(n2cc(-c3nc(Cl)cs3)nn2)C1OC` (stereo partly drawn) [Example 60, 5-Bromo-2-(N-methyl-carbonyl)phenyl 3-[4-(4-chlorothiazol-2-yl)-1H-1,2,3-triazol-1-yl]-3-deoxy-2-O-methyl-1-thio-α-D-galactopyranoside], the Kd was 180 nM on Galectin-3 and 39 nM on Galectin-1.

As for `CO[C@@H]1[C@@H](n2cc(-c3nc(Cl)cs3)nn2)[C@@H](O)[C@@H](CO)O[C@@H]1Sc1cnc2ncsc2c1` [Example 101, Thiazolo[4,5-b]pyridin-6-yl 3-[4-(4-chlorothiazol-2-yl)-1H-1,2,3-triazol-1-yl]-3-deoxy-2-O-methyl-1-thio-α-D-galactopyranoside], the dissociation constant (Kd) on Galectin-3 turned out to be 400 nM; at Galectin-1 it was 110 nM.

For `N#Cc1ccc(S[C@@H]2C[C@@H](n3cc(-c4csc(O)n4)nn3)[C@@H](O)[C@@H](CO)O2)cc1Cl` [Example 89, 3-Chloro-4-cyanophenyl 2,3-dideoxy-3-[4-(2-hydroxythiazol-4-yl)-1H-1,2,3-triazol-1-yl]-1-thio-α-D-galactopyranoside], the Kd on Galectin-3 was 10500 nM; on Galectin-1 it was 210 nM.

In the case of `Cc1cnc(C#N)c(S[C@H]2O[C@H](CO)[C@H](O)[C@H](n3cc(-c4nc(Cl)cs4)nn3)[C@H]2O)c1` [Example 77, 2-Cyano-5-methylpyridin-3-yl 3-[4-(4-chlorothiazol-2-yl)-1H-1,2,3-triazol-1-yl]-3-deoxy-1-thio-α-D-galactopyranoside], the Kd came to 860 nM on Galectin-3 and 830 nM at Galectin-1.

Regarding `CO[C@@H]1[C@@H](n2cc(-c3nccs3)nn2)[C@@H](O)[C@@H](CO)O[C@@H]1Sc1cc(Br)ccc1Cl` [Example 67, 5-Bromo-2-chlorophenyl 3-deoxy-2-O-methyl-3-[4-(2-thiazolyl)-1H-1,2,3-triazol-1-yl]-1-thio-α-D-galactopyranoside], the figures for the dissociation constant (Kd) at Galectin-3 and at Galectin-1 were 3500 nM and 260 nM, respectively.

As for `CO[C@@H]1[C@@H](n2cc(-c3nccs3)nn2)[C@@H](O)[C@@H](CO)O[C@@H]1Sc1cc(Cl)cnc1C#N` [Example 4, 5-Chloro-2-cyanopyridin-3-yl 3-deoxy-2-O-methyl-3-[4-(2-thiazolyl)-1H-1,2,3-triazol-1-yl]-1-thio-α-D-galactopyranoside], the equilibrium dissociation constant (Kd) turned out to be 1200 nM on Galectin-3 and 110 nM on Galectin-1.

`CO[C@@H]1[C@@H](n2cc(-c3nc(C)cs3)nn2)[C@@H](O)[C@@H](CO)O[C@@H]1Sc1cc(Br)ccc1C#N` [Example 63, 5-Bromo-2-cyanophenyl 3-deoxy-3-[4-(4-methylthiazol-2-yl)-1H-1,2,3-triazol-1-yl]-2-O-methyl-1-thio-α-D-galactopyranoside]: the dissociation constant (Kd) was determined as 2900 nM on Galectin-3 and 54 nM on Galectin-1.

Values taken from patent publication US12441754B2, “Galactoside inhibitor of galectins” (GALECTO BIOTECH AB, priority 2019, dated 2025).
